Consider 23 compounds from the supplement of paper PMC10290057.

Structures can show the parent of a compound that is named as a salt.
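Also: Luminescence-based viability readout, five doses per compound, normalized against on-plate DMSO and empty-well controls, followed by dose-response curve fitting for every drug.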

This assay relates to HCT116. In words: efficacy (fitted maximal change in viability relative to DMSO control); higher = less cytotoxic (negative = loss of viability). As to conditions: 48 h.
As to `CC(=O)O[C@H]1C[C@@H]2CC[C@@H]3[C@H](CC[C@@]4(C)[C@H]3C[C@H]([N+]3(C)CCCCC3)[C@@H]4OC(C)=O)[C@@]2(C)C[C@@H]1[N+]1(C)CCCCC1` [Pancuronium bromide], the efficacy was -8.83%.

Turning to `COc1ccnc(C[S+]([O-])c2nc3cc(OC(F)F)ccc3[nH]2)c1OC` (stereo not drawn) [Pantoprazole], the efficacy is -34.5%.

As to `CCC(=O)[N-]S(=O)(=O)c1ccc(-c2c(-c3ccccc3)noc2C)cc1.[Na+]` [Parecoxib sodium], the efficacy was -9.88%.

Consider `CCN1\C=C(C(O)=O)/C(=O)C2=C1C=C(N3CCN(C)CC3)C(=C2)F` [Pefloxacin], for which the efficacy is 5.51%.

Regarding `CSCC[C@H](NC(=O)[C@H](Cc1c[nH]c2ccccc12)NC(=O)CCNC(=O)OC(C)(C)C)C(=O)N[C@@H](CC(=O)O)C(=O)N[C@@H](Cc1ccccc1)C(N)=O` [Pentagastrin], the efficacy is -5.16%.

As to `CC(C)CC(=O)N[C@H](C(=O)N[C@H](C(=O)N[C@@H](CC(C)C)[C@@H](O)CC(=O)N[C@@H](C)C(=O)N[C@@H](CC(C)C)[C@@H](O)CC(=O)O)C(C)C)C(C)C` [Pepstatin], the efficacy is -6.41%.

As for `CCC[C@H](N[C@@H](C)C(=O)N1[C@H](C(=O)O)C[C@@H]2CCCC[C@@H]21)C(=O)OCC` [Perindopril], the efficacy is 9%.

Consider `FC(F)(F)c1ccc(CNc2ccc(Cc3c[nH]c4ncc(Cl)cc34)cn2)cn1` [Pexidartinib], for which the efficacy was -21.9%.

Regarding `NNCCc1ccccc1.O=S(=O)(O)O` [Phenelzine], the efficacy was -40.1%.

For `CC(COc1ccccc1)N(CCCl)Cc1ccccc1` (stereo not drawn) [Phenoxybenzamine hydrochloride], the efficacy is -19.8%.

As to `O=C(CCc1ccc(O)cc1)c1c(O)cc(O)cc1O` [Phloretin], the efficacy stood at 6.68%.

For `O=C(CCc1ccc(O)cc1)c1c(O)cc(O)cc1O[C@@H]1O[C@H](CO)[C@@H](O)[C@H](O)[C@H]1O` [Phlorizin], the efficacy is -28.6%.

In the case of `Nc1nccc(-c2ccc3noc(-c4ccc(Cl)cc4)c3c2)n1` [Pim 1 Inhibitor 2], the efficacy is -55%.

As for `CCc1ccc(CCOc2ccc(CC3SC(=O)NC3=O)cc2)nc1` (stereo not drawn) [Pioglitazone hydrochloride], the efficacy stood at 16.5%.

As for `Clc1ccc2c(N3CCN(CCCN4CCN(c5ccnc6cc(Cl)ccc56)CC4)CC3)ccnc2c1` [Piperaquine], the efficacy was -15.3%.

Take `c1cc(CN2CCCNCCNCCCNCC2)ccc1CN1CCCNCCNCCCNCC1` [Plerixafor hydrochloride]: the efficacy was -8.04%.

For `COc1cc([C@@H]2c3cc4c(cc3[C@H](O)[C@H]3COC(=O)[C@H]23)OCO4)cc(OC)c1OC` [Podofilox], the efficacy was -62.3%.

On to `CCC(C)CCCCC(=O)N[C@@H](CCN)C(=O)NC(C(=O)N[C@H](CCN)C(=O)N[C@@H]1CCNC(=O)C([C@@H](C)O)NC(=O)[C@@H](CCN)NC(=O)[C@@H](CCN)NC(=O)[C@@H](CC(C)C)NC(=O)[C@H](Cc2ccccc2)NC(=O)[C@H](CCN)NC1=O)[C@@H](C)O` (stereo partly drawn) [Polymyxin B sulphate], for which the efficacy was -10.6%.

As for `Nc1cccc2c1C(=O)N(C1CCC(=O)NC1=O)C2=O` (stereo not drawn) [Pomalidomide], the efficacy is -14.1%.

`COC12C(COC(N)=O)\C3=C(/N1CC4C2N4C)C(=O)C(=C(N)/C3=O)\C` (stereo not drawn) [Porfiromycin]: the efficacy was -81%.

For the compound `O=C(O)C[C@H]1CC[C@H](c2ccc(-c3ccc(Nc4ccc(C(F)(F)F)nc4)cn3)cc2)CC1` [Pradigastat], the efficacy is -15.9%.

In the case of `CCO[C@@H]1OC(=O)C[C@@H]1NC(=O)[C@@H]1CCCN2C(=O)CC[C@H](NC(=O)c3nccc4ccccc34)C(=O)N12` [Pralnacasan], the efficacy is -15.4%.

With `CC[C@H](C)C(=O)O[C@H]1C[C@H](O)\C=C2\C=C/[C@H](C)[C@H](CC[C@@H](O)C[C@@H](O)CC(O)=O)[C@@H]12` [Pravastatin sodium], the efficacy was -7.8%.
